Test results reported in patent US20250163168A1, “NOVEL ANTIBODIES AND ANTIBODY CONJUGATES FOR THE TREATMENT OF METABOLIC DISORDERS” (PFIZER INC., priority 2023, published 2025).

Legend:
[1] = test system: diet induced obese (DIO) male hGIPR mice; test: Oral glucose tolerance test (OGTT) in DIO male hGIPR mice; type: in vivo, mouse; conditions: single dose 1 mpk, versus IgG (FIG. 5B)
From the text: To test the efficacy of anti-GIPR antibodies GIPR-0107 and GIPR-2767 in vivo, humanized mice expressing hGIPR were made in which human GIPR is expressed under the control of the endogenous mouse Gipr locus while knocking out the mouse Gipr gene. Human GIPR cDNA-SV40 pA was inserted in-frame with mouse Gipr at the end of exon 2 (1st coding exon) utilizing CRISPR/Cas9 technology. Insertion of human GIPR cDNA and disruption of mouse Gipr was validated by genotyping, and human GIPR mRNA expression was confirmed by quantitative PCR. These hGIPR mice were used to measure the in vivo efficacy of GIPR-0107 and GIPR-2767 using oral glucose tolerance test (OGTT) and weight gain prevention studies.
Mice were singly housed, maintained on a 12-hour light/12-hour dark cycle, and received food and wr ad libitum. Prior to the start of the study, mice were weighed and randomized into groups based on body weight. […] Before dosing, mice were bled vial tail snip to obtain a basal blood glucose reading by AlphaTRAK handheld glucometer, and at time 0, mice were dosed with 1.5 g/kg glucose by oral gavage. Blood glucose was measured by glucometer at 15 min, 30 min, 60 min, and 120 min after glucose administration. […] All residuals were evaluated for meeting the normality assumption with the Shapiro-Wilks Test and Q-Q Plots and the sphericity and homoscedasticity assumption by the residual plots and Bartlett's test. […]

Human GIPR ECD = biological target: T1, Human GIPR ECD (Homo sapiens, UniProt P48546); test: Kinetic evaluation of anti-GIPR antibody by surface plasmon resonance (SPR); set-up: made in house; conditions: SPR at 37° C., captured antibody, 1:1 binding model
T1 sequence (P48546 with tags, fused parts or gaps): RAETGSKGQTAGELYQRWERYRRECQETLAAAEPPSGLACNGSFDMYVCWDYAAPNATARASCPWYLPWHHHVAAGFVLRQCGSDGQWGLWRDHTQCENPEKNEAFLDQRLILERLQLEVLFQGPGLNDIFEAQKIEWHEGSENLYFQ
Protocol: Human GIPR ECD (amino acid sequence of SEQ ID NO: 33) was prepared. An anti-human Fc sensor chip was prepared by amine coupling of anti-human IgG antibody (catalog number BR-1008-39, Cytiva) to all flow cells of a carboxymethylated dextran coated sensor chip (CM5) (catalog number BR100530, Cytiva) according to the manufacturer's protocols. The flow cells were activated by injecting a 1:1 mixture of 400 mM 1-Ethyl-3-(3-dimethylaminopropyl) carbodiimide hydrochloride (EDC) and 100 mM N-hydroxysuccinimide (NHS) for 7 minutes at a flow rate of 10 μL/minute. Anti-human IgG antibody was diluted to ˜12.5 μg/mL in 10 mM sodium acetate pH 5.0 and injected over all flow cells for 7 minutes at 10 μL/minute. All flow cells were blocked with 1M ethanolamine-HCl (ETH) for 7 minutes at 10 μL/minute. Final immobilization levels of the capture antibody were approximately 12,000 resonance units (RU). […]
Flow cell 1 was used as a reference surface. […] Rate constants and affinities were determined by fitting the data to a 1:1 binding model in BIAcore™ Insight Evaluation software version 3.0.12 (GE Healthcare).
After antibody capture, dilutions of the human GIPR ECD proteins were flowed over the sensor chip surface and the association rate constant (ka), dissociation rate constant (kd), and KD values were determined for binding to human GIPR ECD (Table 5).

With “2G10: fully human monoclonal anti-GIPR antagonist antibody portion of AMG 133 (maridebart cafraglutide); benchmark antibody [reference compound]” the “baseline glucose adjusted AUC in OGTT” value [1] was “not significantly different than IgG” and the Kd (Human GIPR ECD) was 19.2 nM.
